Reference: patent US5470858A, “Derivatives of (hetero)aromatic ethers and thioethers having antihyperlipidemic activity, process for their preparation and pharmaceutical compositions containing them” (Pierrel SpA, priority 1991, dated 1995)
Structures can show the parent of a compound that is named as a salt. Where two headings read alike, the source gives them in different places.

Tests used:
Type in all cases: in vivo
[1] = tested on: hyperlipaemic SD male rats; assay: Hypolipemizing activity, 5 days experimental model, modified Nath diet; settings: rat, oral; for change in vivo at 100 mg/kg/day / change in vivo at 300 mg/kg/day: 120 h; for Hepatic index (percent variation vs hyperlipaemic controls): index = (Liver weight/body weight) × 100
Method: The hypolipemizing activity of the compounds of the present invention has been evaluated in the rat using SD male animals (Charles River) of an initial weight of 150 g, housed in controlled environment at a temperature of 21°±1° C., relative humidity 60% and a 12 hours light/dark cycle.
Experimental models have been used in which the animals are rendered hiperlipaemic by "ad libitum" food administration with a modified Nath diet (Atherosclerosis 30, 1978, pag. 45-46) having the following composition: […]
hydrogenated coconut oil
In the first model the animals have been fed with this diet for 5 consecutive days, during which they received the pharmacological treatment once a day by oral route and were sacrificed 2 hours after the last administration.
At the time of the sacrifice the blood was removed, for the lipid determination, as well as the liver the weight of which was the index of a possible hepatomegaly.
By this experimental model the concentration of the serum lipids attained very high values which, in the control group, was four times the normal values for the total cholesterol and the triglycerides.
The determination of the triglycerides, of the total cholesterol and of the cholesterol associated to the HDL has been effected by means of a commercial enzymatic kit. The concentration of the cholesterol associated to VLDL+LDL has been determined by difference between total cholesterol and HDL.
The results obtained in the experimental model of the 5 days duration for some compounds representative of the invention are reported in the following table 1. The data are expressed as percent variation with respect to the hyperlipaemic controls to which carboxymethylcellulose as 0.5% in water at the dose of 10 ml/kg/day by oral route was administered. The same vehicle was used for the suspension of the tested compounds at the doses of 100 and 300 mg/kg/day by oral route.

catalase enzyme = assay: Hepatic tolerability, 15 days at high dose: catalase enzyme activity in liver (index of peroxysomes proliferation); settings: rat liver, 200 mg/kg, standard; absolute values; solvent 539,8
Method: (§1) The hypolipemizing activity of the compounds of the present invention has been evaluated in the rat using SD male animals (Charles River) of an initial weight of 150 g, housed in controlled environment at a temperature of 21°±1° C., relative humidity 60% and a 12 hours light/dark cycle. The animals were fasted with this diet for 15 days consecutively, during which they received the pharmacological treatment once a day by oral route and were sacrificed 24 hours after the last administration. At the sacrifice time the blood was removed for the lipid determination and the liver was removed as well to be weighed and used for the evaluation of the catalase enzyme as the index of the peroxysomes proliferation and thus of hepatotoxicity. In order to evaluate the hepatic tolerability of the compounds of interest they have been administered for 15 days at a high dose (300 mg/kg/day) according to the same conditions of the previous experiment.24 hours after the last treatment the animals have been sacrificed, and the liver has been removed and stored at -20° C. up to the time of dosing the activity of the catalase enzyme (Methods of enzymatic analysis, vol.2, pag. 673, 1974 edit. H. U. Bergmeyer, Verlag Chemie International).

liver = assay: Hepatic tolerability, 15 days at high dose: hepatic index; settings: rat, 200 mg/kg, standard; absolute values; solvent 5,4
Method: as §1

[2] = 100 mg/kg/day, by difference between total and HDL, read-out: Cholesterol VLDL + LDL (percent variation vs hyperlipaemic controls)
[3] = 100 mg/kg/day, read-out: Cholesterol HDL (percent variation vs hyperlipaemic controls)
[4] = 100 mg/kg/day, read-out: Total Cholesterol (percent variation vs hyperlipaemic controls)
[5] = 100 mg/kg/day, read-out: Triglycerides (percent variation vs hyperlipaemic controls)
[6] = 300 mg/kg/day, by difference between total and HDL, read-out: Cholesterol VLDL + LDL (percent variation vs hyperlipaemic controls)
[7] = 300 mg/kg/day, read-out: Cholesterol HDL (percent variation vs hyperlipaemic controls)
[8] = 300 mg/kg/day, read-out: Total Cholesterol (percent variation vs hyperlipaemic controls)
[9] = 300 mg/kg/day, read-out: Triglycerides (percent variation vs hyperlipaemic controls)

SMILES	change in vivo at 100 mg/kg/day [1, 2] [%]	change in vivo at 100 mg/kg/day [1, 3] [%]	change in vivo at 100 mg/kg/day [1, 4] [%]	change in vivo at 100 mg/kg/day [1, 5] [%]	change in vivo at 300 mg/kg/day [1, 6] [%]	change in vivo at 300 mg/kg/day [1, 7] [%]	change in vivo at 300 mg/kg/day [1, 8] [%]	change in vivo at 300 mg/kg/day [1, 9] [%]	Hepatic index (percent variation vs hyperlipaemic controls) ([1]; 100 mg/kg/day)	Hepatic index (percent variation vs hyperlipaemic controls) ([1]; 300 mg/kg/day)	Catalase enzyme activity (catalase enzyme)	Hepatic index (Liver weight/body weight) × 100 (liver)
CCOc1ccc2nc(SCC(O)COc3ccc(C(=O)OCC(C)C)cc3)sc2c1 (centres unmarked) [Example 9, 2-[3-[(p-isobutyloxycarbonyl)-phenoxy]-2-hydroxy-propylthio]6-ethoxy-benzothiazole]	0.9	2.4	1	0.9	-7	-0.2	-6.5	2.8	-0,8%	-1,2%		
CC(C)COC(=O)c1ccc(OCCSc2nc3c(N)ncnc3n2[C@@H]2O[C@H](CO)[C@@H](O)[C@H]2O)cc1 [Example 27]	-14.6	0.1	-13.6	-0.4	-19.3	5.7	-18.4	-10.2	+0,8%	+0,7%		
CC(C)COC(=O)c1ccc(OCC(O)CSc2nc3cc(Cl)ccc3s2)cc1 (centres unmarked) [Example 10, 2-[3-[(p-isobutyloxycarbonyl)-phenoxy]-2-hydroxy-propylthio]5-chloro-benzothiazole]	-20.4	5.5	-18.6	-8.5	-26.4	17.3	-23.3	-26.3	-2,2%	-0,6%		
CC(C)COC(=O)c1ccc(OCC(CSc2nc3ccccc3o2)OC(=O)c2cccnc2)cc1 (centres unmarked) [Example 12]	11.5	12.5	11.6	-19	-8.9	8.6	-7.8	-39.4	-3,9%	-10,8%		
CC(C)COC(=O)c1ccc(OCCCSc2nc3c(N)ncnc3n2[C@@H]2O[C@H](CO)[C@@H](O)[C@H]2O)cc1 [Example 25]	-10	-1.2	-9.7	-3.3	-4.8	-7.1	-5.2	15.7	-1,1%	-2,8%		
CC(C)COC(=O)c1ccc(OCC(=O)CSc2nc3c([nH]2)c(=O)n(C)c(=O)n3C)cc1 [Example 3]	-1.3	11.7	-1.1	-6.5	-10.7	3.5	-10.5	-5.8	+3,2%	-1,5%		
CC(C)COC(=O)c1ccc(OCC(O)CSc2nccn2C)cc1 (centres unmarked) [Example 4, 1-methyl-2-[3-[(p-isobutyloxycarbonyl)-phenoxy]-2-hydroxy-propylthio]-imidazole hydrochloride]	9.2	-3.4	7.7	-5.9	-4	8.2	-2.6	0.2	+2,2%	+4,3%		
CC(C)COC(=O)c1ccc(OCC(CSc2nc3c(N)ncnc3n2[C@@H]2O[C@H](CO)[C@@H](O)[C@H]2O)=NO)cc1 [Example 31]	-6.6	3.2	-0.3	14.7	-25.7	-5.1	-24.7	-0.7	+3,6%	-1,5%		
CC(C)COC(=O)c1ccc(OCC(=O)CSc2nc3ccccc3o2)cc1 [Example 1, 2-[3-[(p-isobutyloxycarbonyl)-phenoxyl]-2-oxo-propylthio]-benzoxazole]	-6.1	2.6	-5.7	-27.6	-6.4	17.9	-5.2	-18.4	-8,5%	-2,5%		
CC(C)COC(=O)c1ccc(OCC(O)CSc2ncccn2)cc1 (centres unmarked) [Example 5, 2-[3-[(p-isobutyloxycarbonyl)-phenoxy]-2-hydroxy-propylthio]-pirimidine hydrochloride]	24	-17.7	22.3	13.8	-20.7	-8.5	-20.3	-14.9	-4,1%	-5,7%		
CC(C)COC(=O)c1ccc(OCC(O)CSc2nc3ccccc3[nH]2)cc1 (centres unmarked) [Example 18]	0.2	3.2	1	-19	9	6.5	9.1	-13.1	+3,8%	+3,9%		
CCOC(=O)C(C)(C)Oc1ccc(Cl)cc1 [Clofibrate, reference compound]											680,9 umoli/min/mg proteins	7,0
CC(C)COC(=O)c1ccc(OCC(O)CSc2nc3cc4ccccc4cc3o2)cc1 (centres unmarked) [Example 15]	17.6	0.8	16.5	5	-9.8	13.4	-8.2	5.2	-2,6%	+0,6%		
